These results are taken from patent US12448373B2, “Azetidinyl-acetamides as CXCR7 inhibitors” (CHEMOCENTRYX, INC., priority 2021, dated 2025).

For this assay, the target named is T1, CXCR7 (Homo sapiens, UniProt P25106).
T1 construct: expressed in transfected cells; host or cells: CHO cells (CHO-CXCR7), transgenes maintained with Hygromycin B and G418
T1 sequence (P25106 whole entry): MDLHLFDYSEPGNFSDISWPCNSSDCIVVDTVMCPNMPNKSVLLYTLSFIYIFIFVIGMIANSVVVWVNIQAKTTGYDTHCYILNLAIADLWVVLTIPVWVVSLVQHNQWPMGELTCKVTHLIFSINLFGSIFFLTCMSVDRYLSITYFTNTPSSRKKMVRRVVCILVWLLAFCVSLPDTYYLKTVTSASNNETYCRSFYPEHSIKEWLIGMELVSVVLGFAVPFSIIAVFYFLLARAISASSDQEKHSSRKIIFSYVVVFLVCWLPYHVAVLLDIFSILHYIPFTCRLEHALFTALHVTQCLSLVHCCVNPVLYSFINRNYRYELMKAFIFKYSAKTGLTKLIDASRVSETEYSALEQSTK
In words: CXCR7 β-arrestin recruitment assay in CHO-CXCR7 cells (ProLink/EA β-galactosidase complementation), induced by human SDF-1a. The assay is classed as cell-based. Conditions: assay buffer, SDF-1a at EC50 concentration. In short, it runs like this:
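SDF-1α-induced β-arrestin recruitment was measured by enzyme-fragment complementation (ProLink-CXCR7 with β-arrestin-EA) in stable CHO cells. Agonist was dosed at its EC50, determined the same day, alongside serially diluted compound for 1.5 h at 37 °C. Fluorogenic galactoside substrate (0.4 mM, 30 min) was read at 360/465 nm, with IC50 from 3-parameter nonlinear regression.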
(In general: Arrestin recruitment assays detect the binding of arrestin to an activated receptor.)
`CC(C)(O)CN1CC(CC(=O)NC(C)(C)c2cc(F)cc(F)c2)(NC(=O)c2cc(-c3ccc(F)cc3F)on2)C1` [Example 1.137]: the IC50 (in general, the concentration that inhibits the measured activity by half) lay in the range of 5 to 100 nM. In turn, `CC(C)(O)CN1CC(CC(=O)NC(C)(C)c2ccc(Cl)cc2)(NC(=O)c2cc(-c3ccc(F)cc3F)on2)C1` [Example 1.138] returned an IC50 of 100 to 1000 nM. Molecule `Cc1cncc(C(C)(C)NC(=O)CC2(NC(=O)c3cc(-c4ccc(F)cc4F)on3)CN([C@H]3CC[C@@](C)(O)CC3)C2)c1` [Example 1.139] returned a concentration for half-maximal inhibition (IC50) of 5 to 100 nM. In the case of `Cc1cncc(C(C)(C)NC(=O)CC2(NC(=O)c3cc(-c4ccc(F)cc4F)on3)CN([C@H]3CC[C@](C)(O)CC3)C2)c1` [Example 1.140] it was 5 to 100 nM; in that of `COc1cncc(C(C)(C)NC(=O)CC2(NC(=O)c3cc(-c4ccc(F)cc4F)on3)CN([C@H]3CC[C@@](C)(O)CC3)C2)c1` [Example 1.141], 5 to 100 nM. The figure for `COc1cncc(C(C)(C)NC(=O)CC2(NC(=O)c3cc(-c4ccc(F)cc4F)on3)CN([C@H]3CC[C@](C)(O)CC3)C2)c1` [Example 1.142] is 5 to 100 nM; for `CC(C)(NC(=O)CC1(NC(=O)c2cc(-c3ccc(F)cc3F)on2)CN([C@H]2CC[C@@](C)(O)CC2)C1)c1cccc(C2CC2)c1` [Example 1.143] it is 5 to 100 nM. For `CC(C)(NC(=O)CC1(NC(=O)c2cc(-c3ccc(F)cc3F)on2)CN([C@H]2CC[C@](C)(O)CC2)C1)c1cccc(C2CC2)c1` [Example 1.144], the IC50 was 5 to 100 nM. The figure for `CC(C)(O)CN1CC(CC(=O)NC(C)(C)c2cccc(C#N)c2)(NC(=O)c2cc(-c3ccc(F)cc3F)on2)C1` [Example 1.145] is 5 to 100 nM. The figure for `CC(C)(NC(=O)CC1(NC(=O)c2cc(-c3ccc(F)cc3F)on2)CN([C@H]2CC[C@@](C)(O)CC2)C1)c1ccnc(C2CC2)c1` [Example 1.146] is 5 to 100 nM. The figure for `CC(C)(NC(=O)CC1(NC(=O)c2cc(-c3ccc(F)cc3F)on2)CN([C@H]2CC[C@](C)(O)CC2)C1)c1ccnc(C2CC2)c1` [Example 1.147] is 5 to 100 nM; for `CCc1cc(C(C)(C)NC(=O)CC2(NC(=O)c3cc(-c4ccc(F)cc4F)on3)CN([C@H]3CC[C@@](C)(O)CC3)C2)ccn1` [Example 1.148] it is 5 to 100 nM; for `CCc1cc(C(C)(C)NC(=O)CC2(NC(=O)c3cc(-c4ccc(F)cc4F)on3)CN([C@H]3CC[C@](C)(O)CC3)C2)ccn1` [Example 1.149] it is 5 to 100 nM. In turn, `Cc1cc(C(C)(C)NC(=O)CC2(NC(=O)c3cc(-c4ccc(F)cc4F)on3)CN(CC3(O)CCC3)C2)ccn1` [Example 1.150] showed an IC50 of 100 to 1000 nM. `Cc1cc(C(C)(C)NC(=O)CC2(NC(=O)c3cc(-c4ccc(F)cc4F)on3)CN(CC3(C)COC3)C2)ccn1` [Example 1.151] displayed an IC50 of 5 to 100 nM.

`CC(C)(NC(=O)CC1(NC(=O)c2cc(-c3ccc(F)cc3F)on2)CN([C@H]2CC[C@@](C)(O)CC2)C1)c1cc(F)cc(F)c1` [Example 1.152] returned an IC50 of less than 5 nM. Turning to `CC(C)(NC(=O)CC1(NC(=O)c2cc(-c3ccc(F)cc3F)on2)CN([C@H]2CC[C@](C)(O)CC2)C1)c1cc(F)cc(F)c1` [Example 1.153], the IC50 is less than 5 nM. `COc1cc(Cl)cc(C(C)(C)NC(=O)CC2(NC(=O)c3cc(-c4ccc(F)cc4F)on3)CN(CC(C)(C)O)C2)c1` [Example 1.154] displayed an IC50 of less than 5 nM. In the case of `CC(C)(NC(=O)CC1(NC(=O)c2cc(-c3ccc(F)cc3F)on2)CN([C@H]2CC[C@@](C)(O)CC2)C1)c1cccc(C(F)(F)F)n1` [Example 1.155] it was less than 5 nM; in that of `CC(C)(NC(=O)CC1(NC(=O)c2cc(-c3ccc(F)cc3F)on2)CN([C@H]2CC[C@](C)(O)CC2)C1)c1cccc(C(F)(F)F)n1` [Example 1.156], less than 5 nM; in that of `CC(C)(NC(=O)CC1(NC(=O)c2cc(-c3ccc(F)cc3F)on2)CN([C@H]2CC[C@@](C)(O)CC2)C1)c1cnccn1` [Example 1.157], 5 to 100 nM. In the case of `CC(C)(NC(=O)CC1(NC(=O)c2cc(-c3ccc(F)cc3F)on2)CN([C@H]2CC[C@](C)(O)CC2)C1)c1cnccn1` [Example 1.158] it was 5 to 100 nM. In the case of `Cc1cc(C(C)(C)NC(=O)CC2(NC(=O)c3cc(-c4ccc(F)cc4F)on3)CN(C3CCC4(CC3)COC4)C2)ccn1` [Example 1.159] it was 5 to 100 nM; in that of `COc1cc(Cl)cc(C(C)(C)NC(=O)CC2(NC(=O)c3cc(-c4ccc(F)cc4F)on3)CN([C@H]3CC[C@@](C)(O)CC3)C2)c1` [Example 1.160], less than 5 nM; in that of `CC(C)(NC(=O)CC1(NC(=O)c2cc(-c3ccc(F)cc3F)on2)CN([C@H]2CC[C@@](C)(O)CC2)C1)c1ccnc(C#N)c1` [Example 1.161], 5 to 100 nM. Regarding `CC(C)(NC(=O)CC1(NC(=O)c2cc(-c3ccc(F)cc3F)on2)CN([C@H]2CC[C@](C)(O)CC2)C1)c1ccnc(C#N)c1` [Example 1.162], the IC50 fell in the range of 5 to 100 nM. The figure for `Cc1ccnc(C(C)(C)NC(=O)CC2(NC(=O)c3cc(-c4ccc(F)cc4F)on3)CN([C@H]3CC[C@@](C)(O)CC3)C2)c1` [Example 1.163] is less than 5 nM; for `Cc1ccnc(C(C)(C)NC(=O)CC2(NC(=O)c3cc(-c4ccc(F)cc4F)on3)CN([C@H]3CC[C@](C)(O)CC3)C2)c1` [Example 1.164] it is less than 5 nM; for `COc1cc(Cl)cc(C(C)(C)NC(=O)CC2(NC(=O)c3cc(-c4ccc(F)cc4F)on3)CN([C@H]3CC[C@](C)(O)CC3)C2)c1` [Example 1.165] it is less than 5 nM.

For `CC(C)(NC(=O)CC1(NC(=O)c2cc(-c3ccc(F)cc3F)on2)CN([C@H]2CC[C@](C)(O)CC2)C1)c1ccnc(C(F)(F)F)c1` [Example 1.166], the IC50 is 5 to 100 nM. In the case of `COc1cc(C)nc(C(C)(C)NC(=O)CC2(NC(=O)c3cc(-c4ccc(F)cc4F)on3)CN([C@H]3CC[C@@](C)(O)CC3)C2)n1` [Example 1.167] it was less than 5 nM; in that of `Cc1cc(C)nc(C(C)(C)NC(=O)CC2(NC(=O)c3cc(-c4ccc(F)cc4F)on3)CN([C@H]3CC[C@](C)(O)CC3)C2)n1` [Example 1.168], less than 5 nM; in that of `COc1cc(F)cc(C(C)(C)NC(=O)CC2(NC(=O)c3cc(-c4ccc(F)cc4F)on3)CN([C@H]3CC[C@@](C)(O)CC3)C2)c1` [Example 1.169], less than 5 nM. Regarding `COc1cc(F)cc(C(C)(C)NC(=O)CC2(NC(=O)c3cc(-c4ccc(F)cc4F)on3)CN([C@H]3CC[C@](C)(O)CC3)C2)c1` [Example 1.170], the IC50 fell in the range of 5 to 100 nM. In the case of `COc1cc(C(C)(C)NC(=O)CC2(NC(=O)c3cc(-c4ccc(F)cc4F)on3)CN(CC(C)(C)O)C2)ccn1` [Example 1.171] it was 100 to 1000 nM; in that of `CC(C)(NC(=O)CC1(NC(=O)c2cc(-c3ccc(F)cc3F)on2)CN([C@H]2CC[C@@](C)(O)CC2)C1)c1cccc(C#N)c1` [Example 1.172], less than 5 nM; in that of `CC(C)(NC(=O)CC1(NC(=O)c2cc(-c3ccc(F)cc3F)on2)CN([C@H]2CC[C@](C)(O)CC2)C1)c1cccc(C#N)c1` [Example 1.173], less than 5 nM. The figure for `COc1cccc(C(C)(C)NC(=O)CC2(NC(=O)c3cc(-c4ccc(F)cc4F)on3)CN(CC3(C)COC3)C2)c1` [Example 1.174] is 100 to 1000 nM; for `Cc1cc(C(C)(C)NC(=O)CC2(NC(=O)c3cc(-c4ccc(F)cc4F)on3)CN(CC(C)(C)O)C2)ccn1` [Example 1.175] it is 5 to 100 nM; for `COc1cc(C(C)(C)NC(=O)CC2(NC(=O)c3cc(-c4ccc(F)cc4F)on3)CN([C@H]3CC[C@@](C)(O)CC3)C2)ccc1F` [Example 1.176] it is 5 to 100 nM. Take `COc1cc(C(C)(C)NC(=O)CC2(NC(=O)c3cc(-c4ccc(F)cc4F)on3)CN([C@H]3CC[C@](C)(O)CC3)C2)ccc1F` [Example 1.177]: the IC50 fell in the range of 5 to 100 nM. The figure for `CC(C)(O)CN1CC(CC(=O)NC(C)(C)c2cccc(Cl)c2)(NC(=O)c2cc(-c3ccc(F)cc3F)on2)C1` [Example 1.178] is less than 5 nM.

For the molecule `COc1cccc(C(C)(C)NC(=O)CC2(NC(=O)c3cc(-c4ccc(F)cc4F)on3)CN(CC(C)(C)O)C2)c1` [Example 1.179], the IC50 was 5 to 100 nM. The figure for `CC(C)(NC(=O)CC1(NC(=O)c2cc(-c3ccc(F)cc3F)on2)CN([C@H]2CC[C@@](C)(O)CC2)C1)c1ccncc1` [Example 1.180] is less than 5 nM; for `CC(C)(NC(=O)CC1(NC(=O)c2cc(-c3ccc(F)cc3F)on2)CN([C@H]2CC[C@](C)(O)CC2)C1)c1ccncn1` [Example 1.181] it is 5 to 100 nM; for `CC(C)(NC(=O)CC1(NC(=O)c2cc(-c3ccc(F)cc3F)on2)CN([C@H]2CC[C@](C)(O)CC2)C1)c1ccncc1` [Example 1.182] it is less than 5 nM. In turn, `COc1cccc(C(C)(C)NC(=O)CC2(NC(=O)c3cc(-c4ccc(F)cc4F)on3)CN(C3CCC4(CC3)COC4)C2)c1` [Example 1.183] came in with an IC50 of 5 to 100 nM. In the case of `Cc1ccc(F)c(C(C)(C)NC(=O)CC2(NC(=O)c3cc(-c4ccc(F)cc4F)on3)CN([C@H]3CC[C@@](C)(O)CC3)C2)c1` [Example 1.184] it was less than 5 nM; in that of `Cc1ccc(F)c(C(C)(C)NC(=O)CC2(NC(=O)c3cc(-c4ccc(F)cc4F)on3)CN([C@H]3CC[C@](C)(O)CC3)C2)c1` [Example 1.185], less than 5 nM; in that of `CCOc1cccc(C(C)(C)NC(=O)CC2(NC(=O)c3cc(-c4ccc(F)cc4F)on3)CN([C@H]3CC[C@@](C)(O)CC3)C2)c1` [Example 1.186], 5 to 100 nM.

Regarding `CCOc1cccc(C(C)(C)NC(=O)CC2(NC(=O)c3cc(-c4ccc(F)cc4F)on3)CN([C@H]3CC[C@](C)(O)CC3)C2)c1` [Example 1.187], the IC50 is 5 to 100 nM. In the case of `COc1cc(C(C)(C)NC(=O)CC2(NC(=O)c3cc(-c4ccc(F)cc4F)on3)CN([C@H]3CC[C@@](C)(O)CC3)C2)ccn1` [Example 1.188] it was less than 5 nM; in that of `COc1cc(C(C)(C)NC(=O)CC2(NC(=O)c3cc(-c4ccc(F)cc4F)on3)CN([C@H]3CC[C@](C)(O)CC3)C2)ccn1` [Example 1.189], less than 5 nM.
